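These data come from cells grown in 96-well plates and exposed to compound for 48 hours at five concentrations. TGI denotes the concentration required for complete inhibition of growth.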
Assays:
Assay in all cases: growth of human tumour cells (NCI), 48 h
[1] = test system: EKVX NSCLC
[2] = test system: UACC-62 melanoma
[3] = test system: SF-268 CNS
[4] = test system: KM12 colon
[5] = test system: A498 renal
[6] = test system: SK-MEL-5 melanoma
[7] = test system: OVCAR-5 ovarian
[8] = test system: SK-OV-3 ovarian
[9] = test system: CCRF-CEM leukemia
[10] = test system: SNB-19 CNS
[11] = test system: CAKI-1 renal
[12] = test system: LXFL 529 NSCLC
[13] = test system: NCI-H522 lung
[14] = test system: SF-539 CNS
[15] = test system: OVCAR-4 ovarian
[16] = test system: TK-10 renal
[17] = test system: HCC-2998 colon
[18] = test system: HOP-18 NSCLC
[19] = test system: NCI-H23 lung
[20] = test system: U251 CNS
[21] = test system: M14 melanoma
[22] = test system: 786-0 renal
[23] = test system: MOLT-4 leukemia
[24] = test system: RPMI-8226 leukemia
[25] = test system: SR leukemia
[26] = test system: K-562 leukemia
[27] = test system: ACHN renal
[28] = test system: SF-295 CNS
[29] = test system: RXF-631 renal
[30] = test system: HOP-62 NSCLC
[31] = test system: SNB-75 CNS
[32] = test system: A549 NSCLC
[33] = test system: SN12C renal
[34] = test system: UO-31 renal
[35] = test system: KM20L2 colon
[36] = test system: IGROV1 ovarian
[37] = test system: HT29 colon
[38] = test system: SK-MEL-28 melanoma
[39] = test system: DMS 273 small cell lung
[40] = test system: HCT-15 colon
[41] = test system: SW-620 colon
[42] = test system: XF 498 CNS
[43] = test system: HOP-92 NSCLC
[44] = test system: SNB-78 CNS
[45] = test system: HL-60(TB) leukemia
[46] = test system: UACC-257 melanoma
[47] = test system: NCI-H460 lung
[48] = test system: HCT-116 colon
[49] = test system: OVCAR-3 ovarian
[50] = test system: LOX IMVI melanoma
[51] = test system: OVCAR-8 ovarian
[52] = test system: M19-MEL melanoma
[53] = test system: RXF 393 renal
[54] = test system: DMS 114 small cell lung
[55] = test system: MALME-3M melanoma
[56] = test system: NCI-H226 lung
[57] = test system: DLD-1 colon
[58] = test system: SK-MEL-2 melanoma
[59] = test system: COLO 205 colon

COC(=O)C12CC3CC(CC(C(=O)O)(C3)C1)C2
TGI [1]: > 100 µM | TGI [2]: > 100 µM | TGI [3]: > 100 µM | TGI [4]: > 100 µM | TGI [5]: > 100 µM | TGI [6]: > 100 µM | TGI [7]: > 100 µM | TGI [8]: > 100 µM | TGI [9]: > 100 µM | TGI [10]: > 100 µM | TGI [11]: > 100 µM | TGI [12]: > 100 µM | TGI [13]: > 100 µM | TGI [14]: > 100 µM | TGI [15]: > 100 µM | TGI [16]: > 100 µM | TGI [17]: > 100 µM | TGI [18]: > 100 µM | TGI [19]: > 100 µM | TGI [20]: > 100 µM | TGI [21]: > 100 µM | TGI [22]: > 100 µM | TGI [23]: > 100 µM | TGI [24]: > 100 µM | TGI [25]: > 100 µM | TGI [26]: > 100 µM | TGI [27]: > 100 µM | TGI [28]: > 100 µM | TGI [29]: > 100 µM | TGI [30]: > 100 µM | TGI [31]: > 100 µM | TGI [32]: > 100 µM | TGI [33]: > 100 µM | TGI [34]: > 100 µM | TGI [35]: > 100 µM | TGI [36]: > 100 µM | TGI [37]: > 100 µM | TGI [38]: > 100 µM | TGI [39]: > 100 µM | TGI [40]: > 100 µM | TGI [41]: > 100 µM | TGI [42]: > 100 µM | TGI [43]: > 100 µM | TGI [44]: > 100 µM | TGI [45]: > 100 µM | TGI [46]: > 100 µM | TGI [47]: > 100 µM | TGI [48]: > 100 µM | TGI [49]: > 100 µM | TGI [50]: > 100 µM | TGI [51]: > 100 µM | TGI [52]: > 100 µM

CCOC(=O)C(=O)Nc1ccccc1CC
TGI [1]: > 100 µM | TGI [2]: > 100 µM | TGI [3]: > 100 µM | TGI [4]: > 100 µM | TGI [6]: > 100 µM | TGI [7]: > 100 µM | TGI [8]: > 100 µM | TGI [9]: > 100 µM | TGI [10]: > 100 µM | TGI [53]: > 100 µM | TGI [11]: > 100 µM | TGI [12]: > 100 µM | TGI [13]: > 100 µM | TGI [14]: > 100 µM | TGI [15]: > 100 µM | TGI [54]: > 100 µM | TGI [16]: > 100 µM | TGI [17]: > 100 µM | TGI [18]: > 100 µM | TGI [19]: > 100 µM | TGI [20]: > 100 µM | TGI [55]: > 100 µM | TGI [21]: > 100 µM | TGI [22]: > 100 µM | TGI [23]: > 100 µM | TGI [24]: > 100 µM | TGI [26]: > 100 µM | TGI [27]: > 100 µM | TGI [56]: > 100 µM | TGI [28]: > 100 µM | TGI [29]: > 100 µM | TGI [30]: > 100 µM | TGI [57]: > 100 µM | TGI [32]: > 100 µM | TGI [33]: > 100 µM | TGI [34]: > 100 µM | TGI [58]: > 100 µM | TGI [36]: > 100 µM | TGI [37]: > 100 µM | TGI [38]: > 100 µM | TGI [41]: > 100 µM | TGI [42]: > 100 µM | TGI [43]: > 100 µM | TGI [45]: > 100 µM | TGI [46]: > 100 µM | TGI [47]: > 100 µM | TGI [48]: > 100 µM | TGI [49]: > 100 µM | TGI [50]: > 100 µM | TGI [51]: > 100 µM | TGI [52]: > 100 µM

C=C(C)CCN[Si](c1ccccc1)(c1ccccc1)C(C)(C)C
TGI [1]: 54.4 µM | TGI [2]: 31.9 µM | TGI [3]: 98 µM | TGI [4]: 36.3 µM | TGI [5]: > 100 µM | TGI [6]: 36.9 µM | TGI [8]: 69 µM | TGI [9]: 66.4 µM | TGI [10]: 49.2 µM | TGI [53]: 32.4 µM | TGI [13]: 44.3 µM | TGI [14]: 29.1 µM | TGI [15]: 44.4 µM | TGI [54]: 51.3 µM | TGI [16]: 68.3 µM | TGI [17]: 43.3 µM | TGI [18]: 33.4 µM | TGI [19]: 45.3 µM | TGI [20]: 30 µM | TGI [55]: 36.7 µM | TGI [21]: 34.4 µM | TGI [22]: 33.5 µM | TGI [23]: 52.6 µM | TGI [24]: 62.2 µM | TGI [26]: 63.2 µM | TGI [27]: > 100 µM | TGI [59]: 33.3 µM | TGI [56]: 25.5 µM | TGI [28]: 36.4 µM | TGI [29]: 41.5 µM | TGI [30]: 31.4 µM | TGI [31]: 82.2 µM | TGI [32]: > 100 µM | TGI [33]: 32.7 µM | TGI [34]: 26.9 µM | TGI [58]: 29.2 µM | TGI [35]: 35.3 µM | TGI [36]: 72 µM | TGI [37]: 30.2 µM | TGI [38]: 42.7 µM | TGI [39]: 37.6 µM | TGI [40]: 48.1 µM | TGI [41]: > 100 µM | TGI [42]: 40.9 µM | TGI [43]: 34.2 µM | TGI [44]: 79 µM | TGI [45]: 44.5 µM | TGI [46]: 29.1 µM | TGI [47]: > 100 µM | TGI [48]: 27.7 µM | TGI [49]: 32 µM | TGI [50]: 31.7 µM | TGI [51]: 36 µM | TGI [52]: 38 µM

CCOC(=O)CCC(=O)C1c2cccc(O)c2C(=O)c2c(O)cc(C)cc21 (stereo not given)
TGI [1]: 3.91 µM | TGI [2]: 1.48 µM | TGI [4]: 0.563 µM | TGI [5]: 4.75 µM | TGI [6]: 1.83 µM | TGI [7]: 1.67 µM | TGI [8]: 2.01 µM | TGI [9]: 2.75 µM | TGI [10]: 3.74 µM | TGI [53]: 1.25 µM | TGI [11]: 3.25 µM | TGI [12]: 1.75 µM | TGI [13]: 1.33 µM | TGI [14]: 0.535 µM | TGI [15]: 1.76 µM | TGI [54]: 0.8 µM | TGI [16]: 3.39 µM | TGI [17]: 2.09 µM | TGI [18]: 1.33 µM | TGI [19]: 2.34 µM | TGI [20]: 0.65 µM | TGI [55]: 2.65 µM | TGI [21]: 2.71 µM | TGI [22]: 2.63 µM | TGI [23]: 6.76 µM | TGI [24]: 5.77 µM | TGI [25]: 4.25 µM | TGI [26]: 10.9 µM | TGI [27]: 2.41 µM | TGI [59]: 3.57 µM | TGI [56]: 1.75 µM | TGI [28]: 0.878 µM | TGI [29]: 1.65 µM | TGI [30]: 2.21 µM | TGI [31]: 1.76 µM | TGI [57]: 3.58 µM | TGI [32]: 3.86 µM | TGI [33]: 3.75 µM | TGI [34]: 1.19 µM | TGI [58]: 1.08 µM | TGI [35]: 3.51 µM | TGI [36]: 0.846 µM | TGI [37]: 7.17 µM | TGI [38]: 2.92 µM | TGI [39]: 2.13 µM | TGI [40]: 2.25 µM | TGI [41]: 2.9 µM | TGI [42]: 0.52 µM | TGI [43]: 3.04 µM | TGI [44]: 1.9 µM | TGI [45]: 1.8 µM | TGI [46]: 2.8 µM | TGI [47]: 1.27 µM | TGI [48]: 1.88 µM | TGI [49]: 1.18 µM | TGI [50]: 1.97 µM | TGI [51]: 2.01 µM | TGI [52]: 1.31 µM

Reference: PubChem BioAssay (NCI)
